According to patent US20060280725A1, “Compositions and methods of treating and diagnosing hepatoma” (priority 2003, published 2006):

Legend:
SK-Hep cells [1] = assay: Cellular quantification (hemacytometer cell number, viability); type: cell-based, human; details: treatment with MFP
Description: FIG. 11. Effect of induced antisense RNA expression and glutamine deprivation on cellular proliferation and viability. Cultures of SK-Hep cells stably transfected with a 1.3 kb ATB^0 construct in the antisense orientation (Antisense 1-1) were treated at time zero with either inducer (FP, 10 nM), vehicle (ethanol, 0.1%) or maintained in the presence (+GLN) or absence (−GLN) of glutamine (DMEM+10% dialyzed FBS±2 mM L-GLN). At the indicated times thereafter, cell number was calculated after trypsmization and subsequent counting on a hemacytometer. The results represent the average±SD of five separate determinations. **p<0.010 versus-MFP. ††p<0.010 versus+GLN. […]
Cellular Quantification. Initial screens of the stably transfected sense and antisense ATB^0/ASCT2 clones to MFP induction utilized the colorimetric MTT (3-[4,5-Dimethylthiazol-2-yl]-2,5-diphenyltetrazolium bromide (Sigma)) assay as previously described (57), using a spectrophotometric plate reader at a wavelength of 562 nm (Bio-Tek EL311SX, Winooski, Vt.). The absorbance is considered to be directly proportional to the number of metabolically active mitochondria, and by extension, the number of cells. In subsequent studies, cell number was quantified directly. At specific times after experimental treatment (±MFP or ±glutamine), cells were removed from the culture dish via trypsinization and quantified on a hemacytometer. […]

SK-Hep cells [2] = assay: Na+-dependent glutamine transport assay in SK-Hep cells and transfected clones; type: cell-based, human; details: SK-Hep parent cells
Description: FIG. 10. Effect of induced ATB0/ASCT2 antisense RNA expression on Na^+-dependent glutamine uptake. Cultures of the SK-Hep parent cell line and SK-Hep cells stably transfected with a 1.3 kb ATB^0 construct in the sense orientation (Sense 2-1) or antisense orientation (Antisense 1-1) were treated with inducer (MFP, 10 nM) or vehicle (ethanol, 0.1%) at time zero. At the indicated times thereafter, the initial rate (30 s) Na^+-dependent transport velocity of 50 μM L-glutamine was measured by radiotracer analysis as described in the methods section. The results represent the average±SD of four separate determinations. *p<0.050 versus control. **p<0.010 versus control.
Glutamine Transport Assays. Measurement of initial-rate Na^+-dependent glutamine uptake was performed by radiotracer analysis using the cluster tray method described in detail previously (57). Initial rate transport velocities are expressed as the average±SD of at least four separate determinations. The transport data was analyzed for significant differences using a t-test with a p<0.050 considered significant.
Inpact of antisense ATB^0/ASCT2 RNA on glutamine transport rates. In order to determine the functional effect of targeting ATB^0/ASCT2 mRNA, glutamine transport rates were measured.

[3] = system: Hep3B, PLC/PRF/5, Focus and THLE-5B cell lines; assay: Amino acid inhibition analysis of Na+-dependent glutamine transport; type: cell-based, human; details: for inhibition at 5000 µM: Homo sapiens, unlabeled amino acid at 5 mM, 50 μM L-glutamine, Hep3B, PLC/PRF/5, Focus, THLE-5B, read-out: inhibition of glutamine uptake
Description: (§1) FIG. 1. Amino acid inhibition analysis of glutamine transport in the Hep3B, PLC/PRF/5 and Focus human hepatoma cell lines and the THLE-5B SV40-immortalized human liver epithelial cell line. The Na^+-dependent transport of 50 μM L-glutamine was measured as described in the Methods section in the absence or presence of the indicated unlabeled amino acids at 5 mM. Testing of cysteine (CYSH) required the presence of 5 mM dithiothreitol (DTT) as a reducing agent, so DTT was tested alone as well. Arrows indicate the relative transport rates for 50 μM L-glutamine in primary human adult (solid arrow) and fetal (open arrow) hepatocytes. The results represent the average±SD of four separate determinations (*p<0.010 versus control). The Eadie-Hofstee plots of the kinetic analyses are shown as an inset in each figure, with the dashed lines representing the resolved high and low affinity components of the composite data (solid line). The derived values of the kinetic constants for each component are given in the Results section.
(§2) Glutamine Transport Assays. Measurement of initial-rate glutamine uptake was carried out via the cluster-tray method originally described by Gazzola (21) as reported previously (6, 9). Briefly, after trypsinization hepatoma cells were plated at a density of 1×10^5 cells/well in 24-well culture plates (Costar Corp., Cambridge, Mass.) and allowed to grow to >80% confluence, typically one to two days later. For initial-rate measurements, the radiotracer utilized was L-[G-^3H] glutamine (Amersham Corp., Arlington Heights, Ill.) at 4 μCi/ml, in the presence of unlabeled L-glutamine at 50 μM. For kinetic studies, the amount of unlabeled glutamine in the transport buffer varied from 10 μM to 10 mM. All transport measurements were carried out at 37° C. and were terminated after 30 s by three rapid washes with an ice-cold phosphate-buffered saline solution. Intracellular radiolabeled glutamine was extracted with 0.2 ml/well of 0.2% sodium dodecyl sulfate (SDS) and 0.2 N NaOH; after 1 h, 0.1 ml of the lysate was neutralized with 10 μl of 2 N HCl and subjected to scintillation spectrophotometry in a Packard TopCount™ (Packard Instruments, Meriden, Conn.). The remaining lysate was utilized for the determination of cellular protein by the bicinchoninic acid (BCA) method (Pierce Chemical Co., Rockford, Ill.). Rates of glutamine transport were calculated from the cpm per sample, the specific activity of the uptake mix (in cpm/nmol) and normalized to cellular protein content in a Microsoft Excel® spreadsheet program. Transport values obtained in the absence of extracellular Na^+ (diffusion and Na^+-independent uptake) were subtracted from those in the presence of Na^+ (total uptake) to yield Na^+-dependent rates which are reported in units of nmol•mg^−1 protein•30 s^−1. […]

[4] = system: human fetal liver fibroblasts (HFLF); assay: Glutamine transport assay (inhibition and kinetic analysis); type: cell-based; details: 5 mM, 50 μM L-glutamine
Description: FIG. 5. Functional and molecular assessment of ATB^0 expression in human fetal liver fibroblasts (HFLF) and cirrhotic liver tissue. A) Amino acid inhibition analysis of Na^+-dependent glutamine uptake in human fetal liver fibroblasts. Fibroblasts were isolated and cultured as described in the Methods section, and amino acid inhibition analysis of 50 μM L-glutamine uptake was carried out as described in FIG. 1. *p<0.010 vs. control. The Eadie-Hofstee plot of the kinetic analysis is shown as an inset, with the dashed lines representing the resolved high and low affinity components of the composite data (solid line). The derived values of the kinetic constants for each component are given in the Results section. B) Northern blot analysis of ATB^0 expression in HFLF. Radiolabeled cDNA probes were generated with the Megaprime™ kit as described in the Methods section, and hybridized to 20 μg of total RNA from HFLF. Exposure time was 24 h. C) RT-PCR and restriction enzyme analysis of ATB^0 expression in HFLF, normal and cirrhotic liver. The analysis was carried out exactly as described in FIG. 3. Omission of RT is shown for the normal liver sample. D) Expression of ATB^0 in biopsies from a patient with liver cirrhosis and hepatocellular carcinoma (HCC). Northern blot analysis of ATB^0 & SN1 expression were performed on RNA extracted from the snap-frozen biopsies. RNA isolation and northern blot analysis was carried out as described in the Methods section, with full-length riboprobes used for detection of transporter mRNA. Exposure times for the blots are shown to illustrate relative expression levels for ATB^0 in each of the samples.
as §2, with “s^−1. All transport values depicted are the average±standard deviation of four separate determinations. Kinetic analysis of Eadie-Hofstee linearized transport data (v vs. v/[L-GLN]) was performed by regression analysis (Cricket Graph®, Computer Associates, Islandia, N.Y.). Nonlinear regression analysis was performed with DataDesk (Data Description, Inc. Ithaca, N.Y.) and Excel for two component Michaelis-Menten kinetics: v=((Vmax1×[S])/(Km1+[S])+(Vmax2×[S])/(Km2+[S])).” for “s^−1.”

THLE-5B = assay: as above; type: cell-based, human; details: 5 mM, 50 μM L-glutamine, p<0.050
Description: as §1
Glutamine Transport Assays. Measurement of initial-rate glutamine uptake was carried out via the cluster-tray method originally described by Gazzola (21) as reported previously (6, 9). Briefly, after trypsinization hepatoma cells were plated at a density of 1×10^5 cells/well in 24-well culture plates (Costar Corp., Cambridge, Mass.) and allowed to grow to >80% confluence, typically one to two days later. For initial-rate measurements, the radiotracer utilized was L-[G-^3H] glutamine (Amersham Corp., Arlington Heights, Ill.) at 4 μCi/ml, in the presence of unlabeled L-glutamine at 50 μM. For kinetic studies, the amount of unlabeled glutamine in the transport buffer varied from 10 μM to 10 mM. All transport measurements were carried out at 37° C. and were terminated after 30 s by three rapid washes with an ice-cold phosphate-buffered saline solution. Intracellular radiolabeled glutamine was extracted with 0.2 ml/well of 0.2% sodium dodecyl sulfate (SDS) and 0.2 N NaOH; after 1 h, 0.1 ml of the lysate was neutralized with 10 μl of 2 N HCl and subjected to scintillation spectrophotometry in a Packard TopCount™ (Packard Instruments, Meriden, Conn.). The remaining lysate was utilized for the determination of cellular protein by the bicinchoninic acid (BCA) method (Pierce Chemical Co., Rockford, Ill.). Rates of glutamine transport were calculated from the cpm per sample, the specific activity of the uptake mix (in cpm/nmol) and normalized to cellular protein content in a Microsoft Excel® spreadsheet program. Transport values obtained in the absence of extracellular Na^+ (diffusion and Na^+-independent uptake) were subtracted from those in the presence of Na^+ (total uptake) to yield Na^+-dependent rates which are reported in units of nmol•mg^−1 protein•30 s^−1. All transport values depicted are the average±standard deviation of four separate determinations. Kinetic analysis of Eadie-Hofstee linearized transport data (v vs. v/[L-GLN]) was performed by regression analysis (Cricket Graph®, Computer Associates, Islandia, N.Y.). Nonlinear regression analysis was performed with DataDesk (Data Description, Inc. Ithaca, N.Y.) and Excel for two component Michaelis-Menten kinetics: v=((Vmax1×[S])/(Km1+[S])+(Vmax2×[S])/(Km2+[S])).
It should be noted that extensive depletion of intracellular amino acid pools were not performed prior to transport measurements in these studies because we sought to assess glutamine uptake under more physiological conditions. […]

SK-Hep cells [5] = assay: Poly IC treatment of SK-Hep cells (growth, viability, apoptosis); type: cell-based, human
Description: Possible role of a PKR response in hepatoma apoptosis. Given the marked effect of induced ATB^0/ASCT2 antisense RNA expression on hepatoma viability and apoptosis, the possibility that the transporter knockdown response was a nonspecific double stranded RNA-dependent protein kinase (PKR) (62) mediated event was considered. To this end, cells were treated with Polyriboinosinic-polyribocytidylic acid (poly IC)—a mimic of double stranded RNA and stimulator of PKR in mammalian cells.
The mechanism leading from ATB^0/ASCT2 inhibition to apoptosis is unclear, but is currently being investigated. As we ruled out a nonspecific double stranded RNA (PKR) response (FIG. 14), we hypothesize that another cellular stress pathway links transporter suppression to apoptosis. Specifically, oxidative stress may be involved due to the likely loss of the antioxidant glutathione after diminution of its precursor glutamine (65, 66). PKR phosphorylates the α chain of the eukaryotic translation initiation factor eIF2 inhibiting the guanine nucleotide exchange factor eIF2B and turning off protein synthesis. In this respect, the selective expression of ATB^0/ASCT2 in cancerous versus normal human liver cells remains important since tumor-specific activation of PKR has recently been used to inhibit glioma growth in vivo [68]. […]

## CC#C[C@]1(O)CC[C@H]2[C@@H]3CCC4=CC(=O)CCC4=C3[C@@H](c3ccc(N(C)C)cc3)C[C@@]21C [MFP, mifepristone]
SK-Hep cells [1]
  growth of the SK-Hep parent cell line: unaffected
SK-Hep cells [2]; 14 h MFP 10 nM, p<0.050, not reproduced in subsequent studies
  decrease in glutamine transport rates: 23%
SK-Hep cells [2]; 24 h MFP
  decrease in glutamine transport rates: not observed

## CNC(C)(C)C(=O)O [MeAIB, alpha-(methylamino)isobutyric acid, reference compound]
[3]; 5 mM, all cell lines except THLE-5B
  inhibition of glutamine uptake: failed to significantly inhibit glutamine uptake
[4]
  inhibition of Na+-dependent glutamine uptake: not
THLE-5B
  diminished glutamine uptake: 29%

## C[C@H](N)C(=O)O [alanine, reference compound]
[3]
  inhibition at 5000 µM: > 80%
[4]
  inhibition of Na+-dependent glutamine uptake: marked inhibition

## N[C@@H](CS)C(=O)O [cysteine, reference compound]
[3]
  inhibition at 5000 µM: > 80%
[4]
  inhibition of Na+-dependent glutamine uptake: marked inhibition

## N[C@@H](CO)C(=O)O [serine, reference compound]
[3]
  inhibition at 5000 µM: > 80%
[4]
  inhibition of Na+-dependent glutamine uptake: marked inhibition

## Polyriboinosinic-polyribocytidylic acid [poly IC]
SK-Hep cells [5]
  apoptotic response in SK-Hep cells: failed to elicit the apoptotic response
  growth or viability of SK-Hep cells: failed to impact growth or viability
